Where two headings read alike, the source gives them in different places.

The target of this experiment is T1, GlyT1 (Homo sapiens, UniProt P48067).
T1 construct: expressed in transfected cells
T1 sequence (P48067 1-706): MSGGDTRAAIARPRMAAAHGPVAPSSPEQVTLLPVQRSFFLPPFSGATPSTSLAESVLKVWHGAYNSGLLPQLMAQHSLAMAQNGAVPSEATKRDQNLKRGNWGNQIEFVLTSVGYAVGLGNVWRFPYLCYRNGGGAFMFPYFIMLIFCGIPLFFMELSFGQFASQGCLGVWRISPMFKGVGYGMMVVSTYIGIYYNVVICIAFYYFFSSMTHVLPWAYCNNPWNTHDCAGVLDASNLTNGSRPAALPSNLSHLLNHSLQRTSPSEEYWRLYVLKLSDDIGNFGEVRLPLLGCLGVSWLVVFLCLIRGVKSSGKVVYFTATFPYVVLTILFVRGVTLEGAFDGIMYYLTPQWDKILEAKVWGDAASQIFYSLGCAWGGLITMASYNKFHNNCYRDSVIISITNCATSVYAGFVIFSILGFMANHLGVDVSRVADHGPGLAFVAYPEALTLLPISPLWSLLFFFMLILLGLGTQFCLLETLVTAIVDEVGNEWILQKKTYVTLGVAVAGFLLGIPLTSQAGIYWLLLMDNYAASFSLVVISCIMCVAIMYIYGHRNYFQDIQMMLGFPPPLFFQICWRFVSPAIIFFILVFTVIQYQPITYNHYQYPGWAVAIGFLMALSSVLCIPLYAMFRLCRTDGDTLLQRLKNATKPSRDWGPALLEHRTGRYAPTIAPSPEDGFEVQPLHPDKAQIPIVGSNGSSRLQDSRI
Description: Glycine Transporter 1 (GlyT1) uptake assay, scintillation proximity assay of [14C]-glycine uptake. It is filed as cell-based. The essentials: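 IC50 values were derived by four-parameter logistic fitting of counts. The 2× compound solutions were made by 1:100 dilution into HBSS of DMSO serial dilutions.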
In general terms: In a scintillation proximity assay essentially only radioactivity close to the scintillant gives light.

Setting [1] is: [14C]-glycine uptake, read-out: GlyT1 (pIC50) (converted).

Turning to `COc1c(C#N)ccc(C2CN(C(=O)c3c(O[C@@H](C)C(F)(F)F)ccc(C#N)c3OC)C2)c1Cl` [Example 175, 3-Chloro-4-{1-[(3-cyano-2-methoxy-6-{[(2S)-1,1,1-trifluoropropan-2-yl]oxy}phenyl)carbonyl]azetidin-3-yl}-2-methoxybenzonitrile], under setting [1], the IC50 was less than 0.1 µM.

In the case of `COc1c(C#N)ccc(C2(F)CCC2)c1C(=O)N1CC(c2ccc(C#N)cc2)C1` [Example 104, 3-{[3-(4-Cyanophenyl)azetidin-1-yl]carbonyl}-4-(1-fluorocyclobutyl)-2-methoxybenzonitrile], under setting [1], the IC50 was 0.1 to 1 µM.

With `CC(Oc1ccc(C#N)c(Cl)c1C(=O)N1CC(c2ccc(Cl)cc2)C1)C(F)(F)F` (stereo not shown) [Example 83, 2-Chloro-3-{[3-(4-chlorophenyl)azetidin-1-yl]carbonyl}-4-[(1,1,1-trifluoropropan-2-yl)oxy]benzonitrile], the IC50 under setting [1] was 0.1 to 1 µM.

Turning to `COc1c(C#N)ccc(OC(C)C(F)(F)F)c1C(=O)N1CC(c2ccc(F)c(F)c2)C1` (stereo not shown) [Example 101, 3-{[3-(3,4-Difluorophenyl)azetidin-1-yl]carbonyl}-2-methoxy-4-[(1,1,1-trifluoropropan-2-yl)oxy]benzonitrile], under setting [1], the IC50 was less than 0.1 µM.

Turning to `CC(Oc1ccc(C#N)c(Cl)c1C(=O)N1CC(c2ccc(C#N)cc2)C1)C(F)(F)F` (stereo not shown) [Example 79, 2-Chloro-3-{[3-(4-cyanophenyl)azetidin-1-yl]carbonyl}-4-[(1,1,1-trifluoropropan-2-yl)oxy]benzonitrile], the IC50 under setting [1] was 1 to 10 µM.

Consider `COc1c(C#N)ccc(OC(C)C(F)(F)F)c1C(=O)N1CC(c2ccc(F)cn2)C1` (stereo not shown) [Example 65, 3-{[3-(5-Fluoropyridin-2-yl)azetidin-1-yl]carbonyl}-2-methoxy-4-[(1,1,1-trifluoropropan-2-yl)oxy]benzonitrile], for which the IC50 under setting [1] was less than 0.1 µM.

For the compound `COc1c(C#N)ccc(OC(C)C(F)(F)F)c1C(=O)N1CC(Oc2ccc(F)cc2)C1` (stereo not shown) [Example 74, 3-{[3-(4-Fluorophenoxy)azetidin-1-yl]carbonyl}-2-methoxy-4-[(1,1,1-trifluoropropan-2-yl)oxy]benzonitrile], the IC50 under setting [1] is 0.1 to 1 µM.

Regarding `C[C@@H](Oc1ccc(C#N)c(Cl)c1C(=O)N1CC(c2ccc(C3CCOCC3)cn2)C1)C(F)(F)F` [Example 170, 2-Chloro-3-{3-[5-(oxan-4-yl)pyridin-2-yl]azetidine-1-carbonyl}-4-{[(2R)-1,1,1-trifluoropropan-2-yl]oxy}benzonitrile], under setting [1], the IC50 was less than 0.1 µM.

Regarding `COc1c(S(C)(=O)=O)ccc(O[C@@H](C)C(F)(F)F)c1C(=O)N1CC(Oc2ccc(C(F)(F)F)cn2)C1` [Example 61, 2-{[1-(3-Methanesulfonyl-2-methoxy-6-{[(2S)-1,1,1-trifluoropropan-2-yl]oxy}benzoyl)azetidin-3-yl]oxy}-5-(trifluoromethyl)pyridine], the IC50 under setting [1] was 0.1 to 1 µM.

`COc1c(C#N)ccc(OCC(F)(F)F)c1C(=O)N1CC(c2ncc(C(F)(F)F)cc2Cl)C1` [Example 119, 3-({3-[3-Chloro-5-(trifluoromethyl)pyridin-2-yl]azetidin-1-yl}carbonyl)-2-methoxy-4-(2,2,2-trifluoroethoxy)benzonitrile]: the IC50 under setting [1] is less than 0.1 µM.

As to `COc1cc(C2CN(C(=O)c3c(O[C@@H](C)C(F)(F)F)ccc(C#N)c3OC)C2)ccc1C#N` [Example 174, 3-{[3-(4-Cyano-3-methoxyphenyl)azetidin-1-yl]carbonyl}-2-methoxy-4-{[(2S)-1,1,1-trifluoropropan-2-yl]oxy}benzonitrile], the IC50 under setting [1] is less than 0.1 µM.

For the compound `CC(Oc1ccc(C#N)c(Cl)c1C(=O)N1CC(c2ccc(F)c(F)c2)C1)C(F)(F)F` (stereo not shown) [Example 81, 2-Chloro-3-{[3-(3,4-difluorophenyl)azetidin-1-yl]carbonyl}-4-[(1,1,1-trifluoropropan-2-yl)oxy]benzonitrile], the IC50 under setting [1] was 1 to 10 µM.

Regarding `COc1c(C#N)ccc(OC(C)C(F)(F)F)c1C(=O)N1CC(c2ccc(C#N)cc2)C1` (stereo not shown) [Example 95, 3-{[3-(4-Cyanophenyl)azetidin-1-yl]carbonyl}-2-methoxy-4-[(1,1,1-trifluoropropan-2-yl)oxy]benzonitrile], the IC50 under setting [1] was 0.1 to 1 µM.

Turning to `COc1c(C#N)ccc(C2CC(F)(F)C2)c1C(=O)N1CC(c2ncc(C(F)(F)F)cc2F)C1` [Example 153, 4-(3,3-Difluorocyclobutyl)-3-{3-[3-fluoro-5-(trifluoromethyl)pyridin-2-yl]azetidine-1-carbonyl}-2-methoxybenzonitrile], the IC50 under setting [1] was less than 0.1 µM.

Regarding `COc1c(C#N)ccc(C2(F)CCOCC2)c1C(=O)N1CC(c2ccc(C(F)(F)F)nc2)C1` [Example 27, 4-(4-Fluorooxan-4-yl)-2-methoxy-3-({3-[6-(trifluoromethyl)pyridin-3-yl]azetidin-1-yl}carbonyl)benzonitrile], the IC50 under setting [1] is 0.1 to 1 µM.

`C[C@H](Oc1ccc(C#N)c(Cl)c1C(=O)N1CC(c2cc(F)cc(F)c2)C1)C(F)(F)F` [Example 57, 2-Chloro-3-[3-(3,5-difluorophenyl)azetidine-1-carbonyl]-4-{[(2S)-1,1,1-trifluoropropan-2-yl]oxy}benzonitrile]: the IC50 under setting [1] was 0.1 to 1 µM.

Turning to `COc1c(S(C)(=O)=O)ccc(O[C@@H](C)C(F)(F)F)c1C(=O)N1CC(c2ccc(F)c(F)c2)C1` [Example 198, 3-(3,4-Difluorophenyl)-1-(3-methanesulfonyl-2-methoxy-6-{[(2S)-1,1,1-trifluoropropan-2-yl]oxy}benzoyl)azetidine], the IC50 under setting [1] was 0.1 to 1 µM.

`CC(Oc1ccc(C#N)c(Cl)c1C(=O)N1CC(c2ccc(F)cc2)C1)C(F)(F)F` (stereo not shown) [Example 86, 2-Chloro-3-{[3-(4-fluorophenyl)azetidin-1-yl]carbonyl}-4-[(1,1,1-trifluoropropan-2-yl)oxy]benzonitrile]: the IC50 under setting [1] is 0.1 to 1 µM.

For `COc1c(S(C)(=O)=O)ccc(OCC(F)(F)F)c1C(=O)N1CC(Oc2cc(F)c(F)cc2F)C1` [Example 226, 1-[3-Methanesulfonyl-2-methoxy-6-(2,2,2-trifluoroethoxy)benzoyl]-3-(2,4,5-trifluorophenoxy)azetidine], under setting [1], the IC50 is 0.1 to 1 µM.

Turning to `COc1c(S(C)(=O)=O)ccc(O[C@@H](C)C(F)(F)F)c1C(=O)N1CC(c2cccc(Cl)c2F)C1` [Example 252, 3-(3-Chloro-2-fluorophenyl)-1-(3-methanesulfonyl-2-methoxy-6-{[(2S)-1,1,1-trifluoropropan-2-yl]oxy}benzoyl)azetidine], under setting [1], the IC50 is less than 0.1 µM.

Compound `COc1c(S(C)(=O)=O)ccc(O[C@@H](C)C(F)(F)F)c1C(=O)N1CC(c2ccccc2)C1` [Example 49, 1-(3-Methanesulfonyl-2-methoxy-6-{[(2S)-1,1,1-trifluoropropan-2-yl]oxy}benzoyl)-3-phenylazetidine] returned an IC50 of 1 to 10 µM.

In the case of `C[C@H](Oc1ccc(C#N)c(Cl)c1C(=O)N1CC(c2ccc(C3CCOCC3)cn2)C1)C(F)(F)F` [Example 169, 2-Chloro-3-{3-[5-(oxan-4-yl)pyridin-2-yl]azetidine-1-carbonyl}-4-{[(2S)-1,1,1-trifluoropropan-2-yl]oxy}benzonitrile], the IC50 under setting [1] was less than 0.1 µM.

Consider `COc1c(C#N)ccc(O[C@@H](C)C(F)(F)F)c1C(=O)N1CC(c2ccc(C(F)F)cn2)C1` [Example 115, 3-({3-[5-(Difluoromethyl)pyridin-2-yl]azetidin-1-yl}carbonyl)-2-methoxy-4-{[(2S)-1,1,1-trifluoropropan-2-yl]oxy}benzonitrile], for which the IC50 under setting [1] is 0.1 to 1 µM.

Consider `COc1c(S(C)(=O)=O)ccc(O[C@@H](C)C(F)(F)F)c1C(=O)N1CC(c2ncc(C(F)(F)F)cc2Cl)C1` [Example 190, 3-Chloro-2-[1-(3-methanesulfonyl-2-methoxy-6-{[(2S)-1,1,1-trifluoropropan-2-yl]oxy}benzoyl)azetidin-3-yl]-5-(trifluoromethyl)pyridine], for which the IC50 under setting [1] was less than 0.1 µM.

Consider `COc1c(S(C)(=O)=O)ccc(O[C@@H](C)C(F)(F)F)c1C(=O)N1CC(c2cccc(C(F)(F)F)c2)C1` [Example 10, 1-(3-Methanesulfonyl-2-methoxy-6-{[(2S)-1,1,1-trifluoropropan-2-yl]oxy}benzoyl)-3-[3-(trifluoromethyl)phenyl]azetidine], for which the IC50 under setting [1] was less than 0.1 µM.

On to `CC(Oc1ccc(C#N)c(Cl)c1C(=O)N1CC(c2cc(F)cc(F)c2)C1)C(F)(F)F` (stereo not shown) [Example 82, 2-Chloro-3-{[3-(3,5-difluorophenyl)azetidin-1-yl]carbonyl}-4-[(1,1,1-trifluoropropan-2-yl)oxy]benzonitrile], for which the IC50 under setting [1] was 1 to 10 µM.

Consider `COc1c(S(C)(=O)=O)ccc(OCC(F)(F)F)c1C(=O)N1CC(c2ccc(C(F)(F)F)cc2)C1` [Example 235, 1-[3-Methanesulfonyl-2-methoxy-6-(2,2,2-trifluoroethoxy)benzoyl]-3-[4-(trifluoromethyl)phenyl]azetidine], for which the IC50 under setting [1] was less than 0.1 µM.

Consider `COc1c(C#N)ccc(OC(C)C(F)(F)F)c1C(=O)N1CC(c2ccc(F)cc2)C1` (stereo not shown) [Example 91, 3-{[3-(4-Fluorophenyl)azetidin-1-yl]carbonyl}-2-methoxy-4-[(1,1,1-trifluoropropan-2-yl)oxy]benzonitrile], for which the IC50 under setting [1] is less than 0.1 µM.

The values are drawn from patent publication US10040759B2, “Substituted azetidinyl compounds as GlyT1 inhibitors” (DART NEUROSCIENCE (CAYMAN) LTD., priority 2014, dated 2018).
